According to the supplement of paper PMC8253809:

Columns and labels:
DIPGX29 [1] = H3.3 K27M diffuse intrinsic pontine glioma line; assay: EC50 (inflection of fitted growth-inhibition curve) (log10 M)
Procedure, shortened: (§1)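 Patient-derived pHGG/DIPG cell lines and astrocyte controls were grown on 1% Geltrex-coated 384-well plates and exposed by pin tool to a 10-point threefold dilution series (mean top concentration 35 μM), in triplicate. Exposure was 7 days (iAstro 3 days) at 37 °C, 5% CO2. CellTiter-Glo luminescence was log2-transformed, normalised per plate to % activity between negative (solvent) and positive control wells, and pooled. EC50 and maximal response (yFin) come from the lowest-AICc three- or four-parameter log-logistic fit.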

DIPGX37 [2] = H3.3 K27M diffuse intrinsic pontine glioma line; assay: as above
Procedure, shortened: as §1

DIPGX29 [3] = assay: maximal growth inhibition (yFin) relative to DMSO / staurosporine; higher = more efficacious
Procedure, shortened: as §1

DIPGX37 [4] = assay: as above
Procedure, shortened: as §1

DIPGX29 [5] = assay: area under dose-response curve of % growth inhibition (log2 RLU vs DMSO / staurosporine), 1e-11 to 1e-4 M (% x log10 M); higher = more growth inhibition
Procedure, shortened: (§2)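 On 1% Geltrex-coated 384-well plates, patient-derived pHGG/DIPG cell lines and astrocytes were treated in triplicate across 10 threefold dilutions (mean top concentration 35 μM) for 7 days, with iAstro treated for 3 days, at 37 °C, 5% CO2. Log2-transformed CellTiter-Glo luminescence was normalised per plate to % activity between solvent and positive controls. Area under the curve was obtained by the trapezoid rule from a log-logistic fit, or from a smoothing spline when that fit failed.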

DIPGX37 [6] = assay: as above
Procedure, shortened: as §2

HGGX39 [7] = paediatric high-grade glioma line; assay: as above
Procedure, shortened: as §2

HGGX6 [8] = H3.3 G34R paediatric high-grade glioma line; assay: as above
Procedure, shortened: as §2

HGGX39 [9] = assay: EC50 (inflection of fitted growth-inhibition curve) (log10 M)
Procedure, shortened: as §1

HGGX6 [10] = assay: as above
Procedure, shortened: as §1

HGGX39 [11] = assay: maximal growth inhibition (yFin) relative to DMSO / staurosporine; higher = more efficacious
Procedure, shortened: as §1

HGGX6 [12] = assay: as above
Procedure, shortened: as §1

Row | SMILES | EC50 (log10 M) (DIPGX29 [1]) | EC50 (log10 M) (DIPGX37 [2]) | maximal growth inhibition (DIPGX29 [3]) [%] | maximal growth inhibition (DIPGX37 [4]) [%] | area under dose-response curve (DIPGX29 [5]) | area under dose-response curve (DIPGX37 [6]) | area under dose-response curve (HGGX39 [7]) | area under dose-response curve (HGGX6 [8]) | EC50 (log10 M) (HGGX39 [9]) | EC50 (log10 M) (HGGX6 [10]) | maximal growth inhibition (HGGX39 [11]) [%] | maximal growth inhibition (HGGX6 [12]) [%]
1 | Cc1nn(C)c(COc2ccc(N3CCN(S(=O)(=O)N(C)C)CC3)cc2)c1-c1cccc2c(CCCOc3cccc4ccccc34)c(C(=O)O)n(CCN3CCOCC3)c12 | -4.9 | -4.73 | 92.1 | 110 | 81.7 | 79.7 | 0 | 4.05 | – | – | – | –
2 | Nc1nccc2c1ncn2[C@@H]1C=C(CO)[C@@H](O)[C@H]1O [3-DEAZANEPLANOCIN] | -7.53 | – | 21.5 | – | 76 | 16.8 | 33.5 | 36.5 | – | – | – | –
3 | CC(C)(C)C(=O)OCOP(=O)(COCCn1cnc2c(N)ncnc21)OCOC(=O)C(C)(C)C [ADEFOVIR DIPIVOXIL] | – | -5.54 | – | 34.3 | 25.6 | 53.7 | 36.5 | 22.2 | -5.71 | -5.06 | 21.4 | 20.9
4 | CCCSc1ccc2[nH]c(NC(=O)OC)nc2c1 [ALBENDAZOLE] | – | -6.1 | – | 28.7 | 33.5 | 60.2 | 66 | 28.7 | -6.13 | -5.18 | 32 | 23
5 | C[C@H]1[C@H](OC(=O)CCC(=O)O)O[C@@H]2O[C@@]3(C)CC[C@H]4[C@H](C)CC[C@@H]1[C@@]24OO3 [ARTESUNATE] | – | – | – | – | 8.84 | 9.88 | 29 | 23.5 | -4.94 | -5.03 | 32.5 | 22.2
6 | CC(C)c1c(C(=O)Nc2ccccc2)c(-c2ccccc2)c(-c2ccc(F)cc2)n1CC[C@@H](O)C[C@@H](O)CC(=O)O [ATORVASTATIN] | – | -6.26 | – | 22 | 48 | 66.2 | 108 | 55.5 | -5.24 | -4.88 | 84.1 | 55.1
7 | CNC(=O)c1ccccc1Sc1ccc2c(/C=C/c3ccccn3)n[nH]c2c1 [AXITINIB] | -6.07 | – | 21.1 | – | 45.4 | 55.3 | 46.3 | 67.6 | -5.96 | -6.35 | 23.3 | 28.6
8 | c1ccc(-c2ccc(C(c3ccccc3)n3ccnc3)cc2)cc1 (stereo not given) [BIFONAZOLE] | – | -4.75 | – | 42.4 | 17.3 | 31.9 | 30.5 | 16.4 | – | -4.81 | – | 20.1
9 | COc1cc2nccc(Oc3ccc(NC(=O)C4(C(=O)Nc5ccc(F)cc5)CC4)cc3)c2cc1OC [CABOZANTINIB] | – | – | – | – | 10.6 | 12.8 | 37.5 | 33 | -4.62 | -4.79 | 60.2 | 27.1
10 | Nc1nc(Cl)nc2c1ncn2[C@@H]1O[C@H](CO)[C@@H](O)[C@@H]1F [CLOFARABINE] | – | -5.4 | – | 28.4 | 52.4 | 47 | 44.4 | 40.9 | – | -5.65 | – | 22.7
11 | Clc1ccccc1C(c1ccccc1)(c1ccccc1)n1ccnc1 [CLOTRIMAZOLE] | -4.92 | – | 29.5 | – | 27.2 | 13.3 | 27.8 | 31.5 | -5.21 | -5.22 | 23 | 26.3
12 | Cc1nc2c([nH]1)-c1ccccc1N(C(=O)c1ccc(NC(=O)c3ccccc3-c3ccccc3)cc1)CC2 [CONIVAPTAN] | -4.73 | -4.59 | 26.5 | 36 | 29.9 | 35.9 | 60.9 | 6.44 | -4.73 | – | 83.9 | –
13 | O=c1[nH]c(=O)n([C@H]2C[C@H](O)[C@@H](CO)O2)cc1F [FLOXURIDINE] | -5.39 | – | 30 | – | 46.2 | 18.8 | 26.8 | 23.5 | – | – | – | –
14 | CC(C)n1c(/C=C/C(O)CC(O)CC(=O)O)c(-c2ccc(F)cc2)c2ccccc21 (stereo not given) [FLUVASTATIN] | – | – | – | – | 25.5 | 1.43 | 51.2 | 54 | -6.08 | -5.92 | 23.9 | 26.8
15 | Nc1ccn([C@@H]2O[C@H](CO)[C@@H](O)C2(F)F)c(=O)n1 [GEMCITABINE] | -8.08 | – | 20.3 | – | 81.9 | 83.9 | 68.9 | 54.2 | – | – | – | –
16 | CCNc1nc(Nc2cc(F)c(C(=O)N3CCOCC3)cc2OC)ncc1C(F)(F)F [GNE-7915] | -4.82 | – | 28.7 | – | 23.5 | 15.9 | 29.7 | 21.1 | -4.79 | – | 38.7 | –
17 | Cc1cc(C)c(S(=O)(=O)N(Cc2ccc(-c3cccc(S(C)(=O)=O)c3)cc2)Cc2ccc(C(F)(F)F)o2)c(C)c1 [GSK-2033] | -5.05 | – | 87.3 | – | 89 | 22.5 | 0 | 30.1 | – | – | – | –
18 | COc1cc2c(cc1-c1c(C)noc1C)ncc1[nH]c(=O)n([C@H](C)c3ccccn3)c12 [I-BET151] | -5.05 | -5.65 | 21.8 | 25.8 | 31.6 | 43.5 | 47.5 | 37.1 | -5.03 | – | 45 | –
19 | CC(=O)N1c2ccc(-c3ccc(C(=O)O)cc3)cc2[C@H](Nc2ccc(Cl)cc2)C[C@@H]1C [I-BET726] | -5.48 | -6.37 | 30 | 37.1 | 43 | 79.4 | 55.9 | 44.5 | -5.73 | – | 37.7 | –
